Test results from patent US10863742B2, “Herbicide combinations” (Bayer CropScience Aktiengesellschaft, priority 2016, dated 2020).

Experiments:
Test in all cases: Greenhouse early post-emergence weed control trial
Assay type in all cases: in vivo
[1] = tested on: Lamium purpureum (LAMPU); settings: 480 h, visual weed control 20 DAA, scale 0-100, early post-emergence BBCH 10-11, g ai/ha: diflufenican 50, pyroxasulfone 25, metribuzin 50, combination 50 + 25 + 50, read-out: % Efficacy against various weeds, LAMPU
Experimental: (§1) The following data are the results of a greenhouse investigation in which the herbicide combination according to the present invention was tested against various monocotyledonous and dicotyledonous weeds after an early-post emergence application (BBCH 10-11).
(§2) For this early post-emergent trial seeds of the above mentioned species were sown in 7 cm jiffy pots containing standard soil (14.7% sand, 19.9% clay, 65.4% silt and 1.8% organic matter) covered with 0,5 cm depth of sandy soil and lightly irrigated from above. The pots were placed in a glasshouse (with conditions of 16 hour day and 8 hour night, 21° C. day and 12° C. night and 60% relative humidity) and irrigated from above to allow the seeds to germinate and grow. Once they had reached the required growth stage BBCH 10-11 the propagated plants were treated with the herbicides. The herbicides were applied in a spray volume of 300 l water/ha using a flat fan nozzle XR 8001 at a pressure of 1.8 bar. After the application and air drying the pots were placed back into the glasshouse and allowed to grow on. The pots were irrigated via flood irrigation as required for good plant growth.
(§3) Visual percent of weed control (4 replicates) was rated 20 days after herbicide applications (DAA) on a scale of 0-100. A rating of 0 is defined as no control and 100 as complete control.
(§4) According to Colby synergistic effects of herbicidal active ingredients are indicated if the measured efficacy is higher than the expected one calculated according to his formula for 3-way mixtures: E=(A+B+C)−(A×B+A×C+B×C)/100+(A×B×C)/10000

[2] = tested on: Lolium rigidum (LOLRI); settings: 480 h, visual weed control 20 DAA, scale 0-100, early post-emergence BBCH 10-11, g ai/ha: diflufenican 50, pyroxasulfone 25, metribuzin 50, combination 50 + 25 + 50, read-out: % Efficacy against various weeds, LOLRI
Experimental: as §1, §2, §3, §4

[3] = tested on: Pharbitis purpurea (PHBPU); settings: Ipomoea purpurea, 480 h; visual weed control 20 DAA, scale 0-100, early post-emergence BBCH 10-11; g ai/ha: diflufenican 50, pyroxasulfone 25, metribuzin 50, combination 50 + 25 + 50; read-out: % Efficacy against various weeds, PHBPU
Experimental: as §1, §2, §3, §4

[4] = tested on: Matricaria inodora (MATIN); settings: Tripleurospermum inodorum, 480 h; visual weed control 20 DAA, scale 0-100, early post-emergence BBCH 10-11; g ai/ha: diflufenican 50, pyroxasulfone 25, metribuzin 50, combination 50 + 25 + 50; read-out: % Efficacy against various weeds, MATIN
Experimental: as §1, §2, §3, §4

[5] = tested on: Veronica persica (VERPE); settings: 480 h, visual weed control 20 DAA, scale 0-100, early post-emergence BBCH 10-11, g ai/ha: diflufenican 50, pyroxasulfone 25, metribuzin 50, combination 50 + 25 + 50, read-out: % Efficacy against various weeds, VERPE
Experimental: as §1, §2, §3, §4

[6] = tested on: Polygonum convolvulus (POLCO); settings: Fallopia convolvulus, 480 h; visual weed control 20 DAA, scale 0-100, early post-emergence BBCH 10-11; g ai/ha: diflufenican 50, pyroxasulfone 25, metribuzin 50, combination 50 + 25 + 50; read-out: % Efficacy against various weeds, POLCO
Experimental: as §1, §2, §3, §4

## O=C(Nc1ccc(F)cc1F)c1cccnc1Oc1cccc(C(F)(F)F)c1 [Diflufenican, diflufenican]
[1]
  Emax: 10%
[2]
  Emax: 2%
[3]
  Emax: 18%
[4]
  Emax: 1%
[5]
  Emax: 18%
[6]
  Emax: 13%

## CSc1nnc(C(C)(C)C)c(=O)n1N [Metribuzin, metribuzin]
[1]
  Emax: 95%
[2]
  Emax: 6%
[3]
  Emax: 5%
[4]
  Emax: 59%
[5]
  Emax: 70%
[6]
  Emax: 1%

## Cn1nc(C(F)(F)F)c(CS(=O)(=O)C2=NOC(C)(C)C2)c1OC(F)F [Pyroxasulfon, pyroxasulfone]
[1]
  Emax: 5%
[2]
  Emax: 29%
[3]
  Emax: 10%
[4]
  Emax: 5%
[5]
  Emax: 5%
[6]
  Emax: 0%
